# Read-outs that look alike come from different tables or passages of the source.
# Columns and labels:
# Type in all cases: cell-based
# SW480 (colon cancer) = test: Antiproliferative activity (CCK-8 cell viability), SW480; conditions: Homo sapiens, 72 h; for inhibition at 3.3 µM: Compound concentration: 3.3 μM; for inhibition at 10 µM: Compound concentration: 10 μM; for inhibition at 30 µM: Compound concentration: 30 μM
# Procedure, shortened: (§1)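 Growth inhibition graded in bands from percent viability against DMSO vehicle, read as CCK-8 absorbance at 450 nm. Compound tested at 3.3, 10 or 30 μM for 72 h, 37 °C; media contained 10% FBS: DMEM for HepG2/SW480, MEM for HeLa, F-12K for A549.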
# [1] = tested on: A431 (epidermoid carcinoma); test: Antiproliferative activity (CCK-8 cell viability), A431; conditions: Homo sapiens, 72 h, read-out: Antiproliferative activity in cancerous cells, A431 (inhibition of cell growth); for inhibition at 3.3 µM: A-431, Compound concentration: 3.3 μM; for inhibition at 10 µM: A-431, Compound concentration: 10 μM; for inhibition at 30 µM: A-431, Compound concentration: 30 μM
# Procedure, shortened: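 This growth inhibition assay used A431 cells maintained in Dulbecco's modified Eagle's medium plus 10% fetal bovine serum. Cells were seeded in 96-well plates, treated with compound for 72 h at 37° C., and then given 10 μL CCK-8 solution. After a further 4 h, absorbance was read at 450 nm.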
# [2] = tested on: alpha-smooth muscle actin (α-SMA); test: Inhibition of TGF-β induced expression of alpha-smooth muscle actin (α-SMA) in CFSC cells (western blot); conditions: compound at 10 μM, TGF-β (10 ng/mL), 24 hours, band intensity vs TGF-β only
# Experimental: The ability of a compound to inhabit the TGF-β induced expression of alpha-smooth muscle actin (α-SMA) was evaluated in CCl4-treated fat storing (CFSC) cells. α-SMA is considered as a reliable marker of hepatic stellate cell activation and a key biomarker for liver fibrosis.
# CFSC cells maintained in a DMEM medium supplemented with 10% fetal bovine serum were seeded to 12-well culture dishes and grown to a confluence of 60-70% the next day. Culture was changed to a serum-free DMEM medium, and the cells were treated with a compound at 10 μM in the presence of TGF-β (10 ng/mL). The cells were incubated for another 24 hours. All culture was maintained at 37° C. in 5% carbon dioxide.
# An NP-40 lysate solution (50 mM Tris (pH 7.4), 150 mM NaCl, 1% NP-40) with EDTA free cocktail added was used to lyse the cells on ice for 30 min. The lysate was collected and centrifuged at 4° C. for 10 min at 12,000 rpm. The pellet was discarded and the supernatant was transferred to a new tube. Cell lysates were loaded with 5× loading buffer and boiled for 10 min, resolved by 10% SDS-polyacrylamide gel electrophoresis (SDS-PAGE), and transferred to PVDF membrane. The membrane was blocked with 5% skim milk in Tris-buffered saline and TWEEN® 20 (TBST; 10 mM Tris-HCl (pH 8.0), 150 mM NaCl, 0.1% TWEEN® 20) for 1 h at room temperature and then incubated with α-SMA and β-actin antibodies overnight at 4° C. After washing twice with TBST, the membrane was probed with a horseradish […] anti-immunoglobulin (1:5000 dilution) for 1 h at room temperature. After two subsequent rinses in TBST, immunoreactive products were reacted with ECL and visualized by a UVP CHEMSTUDIO™ imaging system. The western blotting bands are quantitated using an ImageJ software. The percentage of inhibition was obtained by calculating the percentage decrease in the band intensity compared to the one treated with TGF-β only.
# The results are summarized in Table 1, where A represents a value no less of 80% inhibition, B represents a value less than […] but no less than […], C represents a value less than 50% but no less than 30% inhibition, and D represents a value less than 30% inhibition with a compound at 10 μM.
# [3] = tested on: B16F10 (malignant melanoma); test: Antiproliferative activity (CCK-8 cell viability), B16F10; conditions: Mus musculus, 72 h, read-out: Antiproliferative activity in cancerous cells, B16F10 (inhibition of cell growth); for inhibition at 3.3 µM: B16-F10, Compound concentration: 3.3 μM; for inhibition at 10 µM: B16-F10, Compound concentration: 10 μM; for inhibition at 30 µM: B16-F10, Compound concentration: 30 μM
# Procedure, shortened: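 Cell growth inhibition was measured in B16F10 malignant melanoma cells with a Cell Counting Kit-8 viability assay. Cells were maintained in DMEM plus 10% fetal bovine serum, seeded at 2,000-5,000 cells/well in 96-well plates, and treated for 72 h at 37° C. Viability was expressed relative to DMSO-treated vehicle control wells.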
# HeLa (cervical cancer) = test: Antiproliferative activity (CCK-8 cell viability), HeLa; conditions: Homo sapiens, 72 h, read-out: Antiproliferative activity in cancerous cells, HELA (inhibition of cell growth); for inhibition at 3.3 µM: Compound concentration: 3.3 μM; for inhibition at 10 µM: Compound concentration: 10 μM; for inhibition at 30 µM: Compound concentration: 30 μM
# Procedure, shortened: as §1
# HepG2 (liver cancer) = test: Antiproliferative activity (CCK-8 cell viability), HepG2; conditions: Homo sapiens, 72 h, read-out: Antiproliferative activity in cancerous cells, HepG2 (inhibition of cell growth); for inhibition at 3.3 µM: Compound concentration: 3.3 μM; for inhibition at 10 µM: Compound concentration: 10 μM; for inhibition at 30 µM: Compound concentration: 30 μM
# Procedure, shortened: as §1
# [4] = tested on: MDA-MB-231 (breast cancer); test: Antiproliferative activity (CCK-8 cell viability), MDA-MB-231; conditions: Homo sapiens, 72 h; for inhibition at 3.3 µM: Compound concentration: 3.3 μM; for inhibition at 10 µM: Compound concentration: 10 μM; for inhibition at 30 µM: Compound concentration: 30 μM
# Procedure, shortened: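 Growth inhibition of human MDA-MB-231 breast cancer cells was assessed with a Cell Counting Kit-8. Cells cultured in DMEM plus 10% FBS were seeded at 2,000-5,000 cells/well, treated after attachment, and kept 72 h at 37° C. CCK-8 solution (10 μL) was added for 4 h, and absorbance at 450 nm was compared with DMSO-treated controls.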
# [5] = tested on: A549 (lung adenocarcinoma); test: Antiproliferative activity (CCK-8 cell viability), A549; conditions: Homo sapiens, 72 h, read-out: Antiproliferative activity in cancerous cells, A549 (inhibition of cell growth); for inhibition at 3.3 µM: Compound concentration: 3.3 μM; for inhibition at 10 µM: Compound concentration: 10 μM; for inhibition at 30 µM: Compound concentration: 30 μM
# Procedure, shortened: as §1
# [6] = read-out: Antiproliferative activity in cancerous cells, SW480 (inhibition of cell growth)
# [7] = read-out: Antiproliferative activity in cancerous cells, MDA-MB-231 (inhibition of cell growth)
SMILES,inhibition at 3.3 µM (SW480 (colon cancer); [6]),inhibition at 10 µM (SW480 (colon cancer); [6]),inhibition at 3.3 µM [1],inhibition at 10 µM [1],inhibition at 10 µM [2],inhibition at 3.3 µM [3],inhibition at 10 µM [3],inhibition at 3.3 µM (HeLa (cervical cancer)),inhibition at 10 µM (HeLa (cervical cancer)),inhibition at 3.3 µM (HepG2 (liver cancer)),inhibition at 10 µM (HepG2 (liver cancer)),"inhibition at 3.3 µM [4, 7]","inhibition at 10 µM [4, 7]",inhibition at 3.3 µM [5],inhibition at 10 µM [5],other results
"CC1=C(CC(=O)O)c2c(F)ccc(F)c2/C1=C/c1ccc(C(C)C)cc1 [E12, (E)-2-(4,7-Difluoro-1-(4-isopropylbenzylidene)-2-methyl-1H-inden-3-yl)acetic acid]",< 30%,30 to 50%,< 30%,30 to 50%,< 30%,30 to 50%,≥ 50%,< 30%,30 to 50%,< 30%,< 30%,≥ 50%,≥ 50%,< 30%,30 to 50%,"inhibition at 30 µM (SW480 (colon cancer); [6]): ≥ 50%; inhibition at 30 µM [1]: ≥ 50%; inhibition at 30 µM [3]: ≥ 50%; inhibition at 30 µM (HeLa (cervical cancer)): ≥ 50%; inhibition at 30 µM (HepG2 (liver cancer)): 30 to 50%; inhibition at 30 µM [4, 7]: ≥ 50%; inhibition at 30 µM [5]: ≥ 50%"
"CC1=C(C=CC(=O)O)c2cc(F)ccc2/C1=C\c1ccc(Oc2ccc(F)cc2)cc1 [C33, 3-(5-Fluoro-1-((Z)-4-(4-fluorophenoxy)benzylidene)-2-methyl-1H-inden-3-yl)-acrylic acid]",–,–,–,–,> 80%,–,–,–,–,–,–,–,–,–,–,–
"CC1=C(CCO)c2cc(F)ccc2/C1=C\c1cccc(Oc2ccccc2)c1 [A202, (Z)-2-(5-Fluoro-2-methyl-1-(3-phenoxybenzylidene)-1H-inden-3-yl)ethan-1-ol]",–,–,–,–,< 30%,–,–,–,–,–,–,–,–,–,–,–
"COc1cc(COc2ccc(F)cc2)ccc1/C=C1/C(C)=C(CC(=O)O)c2cc(F)ccc21 [B25, (Z)-2-(5-Fluoro-1-(4-((4-fluorophenoxy)methyl)-2-methoxybenzylidene)-2-methyl-1H-inden-3-yl)acetic acid]",–,–,–,–,> 80%,–,–,–,–,–,–,–,–,–,–,–
"CC1=C(C(C)C(=O)O)c2ccccc2/C1=C\c1ccc(C(C)C)cc1 (stereo not shown) [D3, (Z)-2-(1-(4-Isopropylbenzylidene)-2-methyl-1H-inden-3-yl)propanoic acid]",–,–,–,–,< 30%,–,–,–,–,–,–,–,–,–,–,–
"CC1=C(CCC(=O)O)c2ccccc2/C1=C\c1cccc(Oc2ccccc2)c1 [C24, (Z)-3-(2-Methyl-1-(3-phenoxybenzylidene)-1H-inden-3-yl)propanoic acid]",–,–,–,–,< 30%,–,–,–,–,–,–,–,–,–,–,–
"CC1=C(CC(=O)O)c2cc(F)ccc2/C1=C\c1ccc(COc2ccc(F)cc2)cc1F [B23, (Z)-2-(5-Fluoro-1-(2-fluoro-4-((4-fluorophenoxy)methyl)benzylidene)-2-methyl-1H-inden-3-yl)acetic acid]",–,–,–,–,50 to 80%,–,–,–,–,–,–,–,–,–,–,–
"CC1=C(CC(=O)O)c2cc(F)ccc2/C1=C\c1ccc(OC2CCNCC2)cc1 [C202, (Z)-2-(5-Fluoro-2-methyl-1-(4-(piperidin-4-yloxy)benzylidene)-1H-inden-3-yl)-acetic acid]",< 30%,< 30%,≥ 50%,≥ 50%,–,< 30%,< 30%,< 30%,30 to 50%,< 30%,< 30%,< 30%,< 30%,< 30%,< 30%,"inhibition at 30 µM (SW480 (colon cancer); [6]): < 30%; inhibition at 30 µM [1]: ≥ 50%; inhibition at 30 µM [3]: ≥ 50%; inhibition at 30 µM (HeLa (cervical cancer)): ≥ 50%; inhibition at 30 µM (HepG2 (liver cancer)): ≥ 50%; inhibition at 30 µM [4, 7]: ≥ 50%; inhibition at 30 µM [5]: 30 to 50%"
"CC1=C(CC(=O)O)c2cc(Cl)ccc2/C1=C\c1ccc(CCc2ccccc2)cc1 [B158, (Z)-2-(5-Chloro-2-methyl-1-(4-phenethylbenzylidene)-1H-inden-3-yl)acetic acid]",< 30%,< 30%,< 30%,< 30%,–,30 to 50%,≥ 50%,< 30%,≥ 50%,< 30%,≥ 50%,< 30%,< 30%,< 30%,< 30%,"inhibition at 30 µM (SW480 (colon cancer); read-out: Antiproliferative activity in cancerous cells, SW480): 30 to 50%; inhibition at 30 µM ([4]; read-out: Antiproliferative activity in cancerous cells, MDA-MB-231): 30 to 50%"
"CC1=C(CC(=O)O)c2cc(Cl)ccc2/C1=C\c1ccc(COCc2ccc(F)cc2)cc1 [B148, (Z)-2-(5-Chloro-1-(4-(((4-fluorobenzyl)oxy)methyl)benzylidene)-2-methyl-1H-inden-3-yl)acetic acid]",≥ 50%,≥ 50%,≥ 50%,≥ 50%,–,< 30%,< 30%,30 to 50%,≥ 50%,< 30%,≥ 50%,30 to 50%,30 to 50%,30 to 50%,≥ 50%,–

# Reference: US20260184663A1, “INDENE COMPOUNDS, PHARMACEUTICAL COMPOSITIONS THEREOF, AND THEIR THERAPEUTIC APPLICATIONS” (NucMito Pharmaceuticals co. Ltd., priority 2022, published 2026)
